Assay results published in PubChem BioAssay (NCI).
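Dose response: 5 concentrations. Exposure: 48 h. Format: 96-well plates. Endpoint: linear interpolation; highest concentration if not reached. Definition used: TGI = concentration required for complete inhibition of growth.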

Experiments:
Test in all cases: DTP human tumour cell line panel, 48 h
MALME-3M melanoma = tested on: MALME-3M melanoma
NCI-H226 lung = tested on: NCI-H226 lung
COLO 205 colon = tested on: COLO 205 colon
HCT-116 colon = tested on: HCT-116 colon
A549 NSCLC = tested on: A549 NSCLC
NCI-H522 lung = tested on: NCI-H522 lung
NCI-H23 lung = tested on: NCI-H23 lung
NCI/ADR-RES ovarian = tested on: NCI/ADR-RES ovarian
HOP-92 NSCLC = tested on: HOP-92 NSCLC
MDA-N = tested on: MDA-N
T-47D breast = tested on: T-47D breast
A498 renal = tested on: A498 renal

SMILES	TGI (MALME-3M melanoma)	TGI (NCI-H226 lung)	TGI (COLO 205 colon)	TGI (HCT-116 colon)	TGI (A549 NSCLC)	TGI (NCI-H522 lung)	TGI (NCI-H23 lung)	TGI (NCI/ADR-RES ovarian)	TGI (HOP-92 NSCLC)	TGI (MDA-N)	TGI (T-47D breast)	TGI (A498 renal)
Cc1cc(=O)oc2c(CNC(Cc3ccccc3)C(=O)O)c(O)ccc12 (stereo unspecified)	> 100 µM	> 100 µM	> 100 µM	> 100 µM	> 100 µM	> 100 µM	> 100 µM	> 100 µM	> 100 µM	> 100 µM	> 100 µM	–
CC(C)(C)OC(=O)N1C(c2cccnc2)=CC[C@H]2C3CC=C(c4cccnc4)[C@@]3(C)CC[C@@H]21 (stereo partly specified)	13.3 µM	15.1 µM	3.19 µM	17.5 µM	12.2 µM	11.9 µM	12.8 µM	34.9 µM	8.34 µM	9.2 µM	29.8 µM	18.5 µM
N[C@H]1CCCC[C@@H]1N1C(=O)c2ccccc2C1(O)c1ccc(Cl)cc1 (stereo partly specified)	27.8 µM	31.3 µM	12.6 µM	21.9 µM	25.2 µM	27.8 µM	28.6 µM	30.8 µM	24.9 µM	25 µM	14.7 µM	28.1 µM
O=C1C(c2c(O)[nH]c3ccc(Br)cc23)=Nc2ccccc21	44.4 µM	34.3 µM	31.4 µM	6.47 µM	17.3 µM	39.7 µM	40.1 µM	> 100 µM	34.9 µM	34.8 µM	64.2 µM	14.1 µM
CC1=C(C(=O)Nc2ccccc2)C2(CCCCC2)C(C#N)=C(SCC(=O)Nc2ccc(Br)cc2)N1	7.48 µM	23 µM	4.53 µM	8.28 µM	22.3 µM	7.25 µM	23.3 µM	27.3 µM	8.44 µM	17.2 µM	92.5 µM	19.6 µM
Cc1ccc2c(c1)-c1nc(N)c(C#N)c(-c3ccccc3)c1CCS2(=O)=O	87.3 µM	78.5 µM	> 100 µM	> 100 µM	> 100 µM	> 100 µM	> 100 µM	> 100 µM	80.3 µM	> 100 µM	> 100 µM	98.9 µM
NC(=S)N/N=C\c1nccc2ccccc12	> 23.1 µM	0.54 µM	2.89 µM	> 59.4 µM	> 100 µM	32.5 µM	> 100 µM	1.13 µM	4.56 µM	> 100 µM	> 100 µM	2.39 µM
O=C(NCCCCCCNC(=O)c1cc(-c2ccccc2)nc2ccccc12)c1cc(-c2ccccc2)nc2ccccc12	> 100 µM	> 100 µM	> 100 µM	> 100 µM	> 100 µM	> 100 µM	> 100 µM	> 100 µM	> 100 µM	> 100 µM	> 100 µM	> 100 µM
CC(C)/C(Cl)=N\OC(=O)Nc1cccc(Cl)c1	24.1 µM	38.9 µM	4.61 µM	36.2 µM	35.7 µM	3.33 µM	34 µM	> 57 µM	–	28.6 µM	68.5 µM	33.2 µM
